In patent US20100081690A1, “OXAZOLE DERIVATIVES AS POSITIVE ALLOSTERIC MODULATORS OF METABOTROPIC GLUTAMATE RECEPTORS” (ADDEX PHARMA SA, priority 2006, published 2010):

How the values were obtained:
[1] = target: T1, rat mGluR5 (Rattus norvegicus, UniProt P31424); experiment: mGluR5 assay on HEK-expressing rat mGluR5 (fluorescent cell based Ca2+ mobilization); conditions: for activation of rat mGluR5 receptors: HEK-rat mGluR5 cell line, without co-addition of glutamate or mGluR5 agonist; for EC50: HEK-293 cells stably expressing rat mGluR5, no co-addition of glutamate, mean of at least three independent experiments in duplicate, read-out: Ca2+ Flux (mean EC50)
T1 construct: expressed in transfected cells
Method: Positive functional expression of HEK-293 cells stably expressing rat mGluR5 receptor was determined by measuring intracellular Ca^2+ changes using a Fluorometric Imaging Plate Reader (FLIPR, Molecular Devices, Sunnyvale, Calif.) in response to glutamate or selective known mGluR5 agonists and antagonists. Rat mGluR5RT-PCR products in HEK-293 cells were sequenced and found 100% identical to rat mGluR5Genbank reference sequence (NM_017012). HEK-293 cells expressing rmGluR5 were maintained in media containing DMEM, dialyzed Fetal Bovine Serum (10%), Glutamax™ (2 mM), Penicillin (100 units/ml), Streptomycin (100 μg/ml), Geneticin (100 μg/ml) and Hygromycin-B (40 μg/ml) at 37° C./5% CO2.
After one day of incubation, cells were washed with assay buffer containing: 142 mM NaCl, 6 mM KCl, 1 mM […], 1 mM CaCl2, 20 mM HEPES, 1 g/L glucose, 0.125 mM sulfinpyrazone, pH 7.4. After 60 min of loading with 4 uM Fluo-4 (TefLabs, Austin, Tex.), the cells were washed three times with 50 μl of PBS Buffer and resuspended in 45 μl of assay Buffer. The plates were then transferred to a Fluorometric Imaging Plate Reader (FLIPR, Molecular Devices, Sunnyvale, Calif.) for the assessment of intracellular calcium flux. After monitoring the baseline fluorescence for 10 seconds, increasing concentrations of representative compound (from 0.01 to 60 μM) of the present invention diluted in Assay Buffer (15 μl of 4× dilutions) was added to the cell. The final DMSO concentration in the assay was 0.3%. In each experiment, fluorescence was then monitored as a function of time for 3 minutes and the data analyzed using Microsoft Excel and GraphPad Prism. Each data point was also measured two times.
Under these experimental conditions, this HEK-rat mGluR5 cell line is able to directly detect positive allosteric modulators without the need of co-addition of glutamate or mGluR5 agonist.
The concentration-response curves of representative compounds of the present invention were generated using the Prism GraphPad software (Graph Pad Inc, San Diego, USA). The curves were fitted to a four-parameter logistic equation:
(Y=Bottom+(Top-Bottom)/(1+10̂((Log EC50−X)*Hill Slope)
allowing determination of EC50 values.
The Table 1 below represents the mean EC50 obtained from at least three independent experiments of selected molecules performed in duplicate.

[2] = target: T2, mGluR5 (Rattus norvegicus, UniProt P31424); conditions: Liu et al (2006), Zhang et al (2005); cited from earlier work
T2 construct: positive allosteric modulators of mGluR5 receptors in native preparations; endogenous in cells; host or cells: primary cortical astrocytes from Sprague-Dawley rat embryos (E16-19)
T2 sequence (P31424 21-1203): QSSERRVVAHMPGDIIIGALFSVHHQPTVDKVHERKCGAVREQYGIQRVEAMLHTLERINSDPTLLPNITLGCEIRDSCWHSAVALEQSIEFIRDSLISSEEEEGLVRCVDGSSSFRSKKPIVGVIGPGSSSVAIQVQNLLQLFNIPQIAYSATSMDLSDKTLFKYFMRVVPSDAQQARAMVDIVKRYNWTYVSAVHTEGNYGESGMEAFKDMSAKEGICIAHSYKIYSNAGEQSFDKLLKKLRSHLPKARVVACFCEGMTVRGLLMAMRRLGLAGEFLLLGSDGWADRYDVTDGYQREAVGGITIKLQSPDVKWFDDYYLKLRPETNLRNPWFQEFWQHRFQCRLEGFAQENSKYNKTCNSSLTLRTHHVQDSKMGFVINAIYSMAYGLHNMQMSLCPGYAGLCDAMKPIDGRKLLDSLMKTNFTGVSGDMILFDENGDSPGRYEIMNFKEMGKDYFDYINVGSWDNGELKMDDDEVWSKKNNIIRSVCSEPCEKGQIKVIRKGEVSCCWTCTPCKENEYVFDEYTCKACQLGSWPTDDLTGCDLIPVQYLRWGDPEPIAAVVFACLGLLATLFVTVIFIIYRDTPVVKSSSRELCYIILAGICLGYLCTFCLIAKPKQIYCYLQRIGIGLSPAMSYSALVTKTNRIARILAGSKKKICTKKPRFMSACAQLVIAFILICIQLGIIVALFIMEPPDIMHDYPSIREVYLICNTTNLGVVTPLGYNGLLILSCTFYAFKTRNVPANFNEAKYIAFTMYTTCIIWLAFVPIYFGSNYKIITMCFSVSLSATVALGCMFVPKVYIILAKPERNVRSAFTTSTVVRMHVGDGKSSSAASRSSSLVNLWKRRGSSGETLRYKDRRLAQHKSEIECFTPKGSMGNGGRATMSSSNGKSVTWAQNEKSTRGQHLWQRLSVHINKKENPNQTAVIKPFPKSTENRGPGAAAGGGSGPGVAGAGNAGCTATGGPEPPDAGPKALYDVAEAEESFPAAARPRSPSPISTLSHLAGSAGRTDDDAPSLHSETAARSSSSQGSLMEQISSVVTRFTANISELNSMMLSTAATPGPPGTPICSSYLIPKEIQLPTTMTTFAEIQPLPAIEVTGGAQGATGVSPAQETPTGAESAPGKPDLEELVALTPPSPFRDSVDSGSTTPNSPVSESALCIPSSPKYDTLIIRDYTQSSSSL

T1 sequence (P31424 21-1171 isoform P31424-2 limits assumed): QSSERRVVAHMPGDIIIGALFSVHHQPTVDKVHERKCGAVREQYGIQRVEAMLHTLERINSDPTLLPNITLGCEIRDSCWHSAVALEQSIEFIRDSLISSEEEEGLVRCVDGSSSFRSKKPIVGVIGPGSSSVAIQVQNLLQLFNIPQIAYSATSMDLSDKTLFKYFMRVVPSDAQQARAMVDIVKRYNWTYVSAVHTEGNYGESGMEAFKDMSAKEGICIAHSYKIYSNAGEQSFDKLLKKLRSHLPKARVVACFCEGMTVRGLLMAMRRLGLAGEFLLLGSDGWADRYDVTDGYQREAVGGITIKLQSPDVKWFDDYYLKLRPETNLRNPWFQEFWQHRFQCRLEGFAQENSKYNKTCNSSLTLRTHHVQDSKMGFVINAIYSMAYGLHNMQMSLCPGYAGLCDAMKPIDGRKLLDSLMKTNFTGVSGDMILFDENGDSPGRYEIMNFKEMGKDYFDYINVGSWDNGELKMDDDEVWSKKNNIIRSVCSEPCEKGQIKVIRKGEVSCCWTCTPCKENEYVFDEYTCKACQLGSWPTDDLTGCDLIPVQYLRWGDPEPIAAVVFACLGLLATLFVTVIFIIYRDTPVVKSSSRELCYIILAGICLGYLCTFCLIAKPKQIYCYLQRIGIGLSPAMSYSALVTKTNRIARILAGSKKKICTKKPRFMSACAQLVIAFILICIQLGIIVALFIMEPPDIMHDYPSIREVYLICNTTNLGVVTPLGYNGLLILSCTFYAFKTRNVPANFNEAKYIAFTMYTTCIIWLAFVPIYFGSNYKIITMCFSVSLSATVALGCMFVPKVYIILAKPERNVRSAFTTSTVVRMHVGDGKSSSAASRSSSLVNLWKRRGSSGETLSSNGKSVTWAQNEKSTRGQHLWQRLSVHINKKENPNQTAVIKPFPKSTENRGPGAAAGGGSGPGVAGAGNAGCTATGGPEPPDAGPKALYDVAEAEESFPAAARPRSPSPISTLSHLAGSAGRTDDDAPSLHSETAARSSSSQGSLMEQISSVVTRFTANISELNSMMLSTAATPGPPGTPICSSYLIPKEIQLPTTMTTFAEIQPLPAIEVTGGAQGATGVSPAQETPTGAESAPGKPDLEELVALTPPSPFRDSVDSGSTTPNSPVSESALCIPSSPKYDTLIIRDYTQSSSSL

Row | SMILES | EC50 [1] [nM] | further results
1 | N#Cc1cccc(C(=O)Nc2cc(-c3ccccc3)nn2-c2ccccc2)c1 [CDPPB, reference compound] | – | activation of rat mGluR5 receptors [1]: activating; activity in rat cortical astrocytes culture in the absence of added glutamate [2]: inactive
2 | O=C(Nc1ccc(Cl)cc1CN1C(=O)c2ccccc2C1=O)c1ccccc1O [CPPHA, reference compound] | – | activation of rat mGluR5 receptors [1]: activating; activity in rat cortical astrocytes culture in the absence of added glutamate [2]: inactive
3 | Fc1cccc(/C=N/N=C/c2cccc(F)c2)c1 [DFB, reference compound] | – | activation of rat mGluR5 receptors [1]: activating; activity in rat cortical astrocytes culture in the absence of added glutamate [2]: inactive
4 | O=C(c1ccc(F)nc1)N1CCC[C@H](c2nc(-c3cc(F)c[nH]3)co2)C1 [Example 2, (6-Fluoro-pyridin-3-yl)-{(S)-3-[4-(4-fluoro-1H-pyrrol-2-yl)-oxazol-2-yl]-piperidin-1-yl}-methanone] | < 1000 | melting point: 123 °C
5 | O=C(c1ccc(F)cc1)N1CCC[C@H](c2nc(-c3ccc(F)cc3)co2)C1 [Example 3, (4-Fluoro-phenyl)-{(S)-3-[4-(4-fluorophenyl)-oxazol-2-yl]-piperidin-1-yl}-methanone] | < 1000 | –
6 | O=C(c1ccc(F)nc1)N1CCC[C@H](c2nc(-c3ccc(F)cc3)co2)C1 [Example 4, (6-Fluoro-pyridin-3-yl)-{(S)-3-[4-(4-fluoro-phenyl)-oxazol-2-yl]-piperidin-1-yl}-methanone] | < 1000 | –
7 | O=C(c1ccnc(F)c1)N1CCC[C@H](c2nc(-c3ccc(F)cc3)co2)C1 [Example 5, (2-Fluoro-pyridin-4-yl)-{(S)-3-[4-(4-fluoro-phenyl)-oxazol-2-yl]-piperidin-1-yl}-methanone] | < 1000 | –
8 | O=C(c1ccncc1F)N1CCC[C@H](c2nc(-c3ccc(F)cc3)co2)C1 [Example 6, (3-Fluoro-pyridin-4-yl)-{(S)-3-[4-(4-fluoro-phenyl)-oxazol-2-yl]-piperidin-1-yl}-methanone] | < 1000 | –
9 | Cc1oncc1C(=O)N1CCC[C@H](c2nc(-c3ccc(F)cc3)co2)C1 [Example 7, (S)-(3-(4-(4-Fluoro-phenyl)-oxazol-2-yl)-piperidin-1-yl)(5-methyl-isoxazol-4-yl)-methanone] | < 1000 | –
10 | O=C(c1ccc(F)cc1)N1CCC[C@H](c2nc(-c3ccccn3)co2)C1 [Example 8, (S)-(4-Fluoro-phenyl)(3-(4-(pyridin-2-yl)-oxazol-2-yl)-piperidin-1-yl)-methanone] | < 1000 | –
11 | O=C(c1ccc(F)c(F)c1)N1CCC[C@H](c2nc(-c3ccccn3)co2)C1 [Example 9, (S)-(3,4-Difluoro-phenyl)(3-(4-(pyridin-2-yl)-oxazol-2-yl)-piperidin-1-yl)-methanone] | < 1000 | –
12 | O=C(c1ccc(F)cc1)N1CCC[C@H](c2nc(-c3ccc(F)cn3)co2)C1 [Example 10, (S)-(4-Fluoro-phenyl)(3-(4-(5-fluoro-pyridin-2-yl)-oxazol-2-yl)-piperidin-1-yl)-methanone] | < 1000 | –
13 | O=C(c1ccc(F)cc1)N1CCC[C@H](c2nc(-c3ccccc3F)co2)C1 [Example 11, (S)-(4-Fluoro-phenyl)(3-(4-(2-fluoro-phenyl)-oxazol-2-yl)-piperidin-1-yl)-methanone] | < 1000 | –
14 | O=C(c1ccc(F)nc1)N1CCC[C@H](c2nc(-c3ccccc3F)co2)C1 [Example 12, (S)-(3-(4-(2-Fluoro-phenyl)-oxazol-2-yl)-piperidin-1-yl)(6-fluoro-pyridin-3-yl)-methanone] | < 1000 | –
15 | O=C(c1ccnc(F)c1)N1CCC[C@H](c2nc(-c3ccccc3F)co2)C1 [Example 13, (S)-(3-(4-(2-Fluoro-phenyl)-oxazol-2-yl)-piperidin-1-yl)(2-fluoro-pyridin-4-yl)-methanone] | < 1000 | –
16 | O=C(c1ccc(F)cc1)N1CCC[C@H](c2nc(-c3ccc(F)cc3F)co2)C1 [Example 14, (S)-(3-(4-(2,4-Difluoro-phenyl)-oxazol-2-yl)-piperidin-1-yl)(4-fluoro-phenyl)-methanone] | < 1000 | –
17 | O=C(c1ccc(F)nc1)N1CCC[C@H](c2nc(-c3ccc(F)cc3F)co2)C1 [Example 15, (S)-(3-(4-(2,4-Difluoro-phenyl)-oxazol-2-yl)-piperidin-1-yl)(6-fluoro-pyridin-3-yl)-methanone] | 1000 to 10000 | –
18 | O=C(c1ccnc(F)c1)N1CCC[C@H](c2nc(-c3ccc(F)cc3F)co2)C1 [Example 16, (S)-(3-(4-(2,4-Difluoro-phenyl)-oxazol-2-yl)-piperidin-1-yl)(2-fluoro-pyridin-4-yl)-methanone] | < 1000 | –
